Source: patent US12577242B2, “Pyrrolopyridine and imidazopyridine antiviral compounds” (KATHOLIEKE UNIVERSITEIT LEUVEN, priority 2020, dated 2026)

Assays:
[1] = system: classical swine fever virus (CSFV) strain Alfort 187; assay: microbe, parasite or virus in culture; type: cell-based; details: PK-15, in Sus scrofa, 48 h
[2] = Cytotoxicity in MDBK cells (no BVD virus added); details: bovine, MDBK cells (Madin-Darby bovine kidney), no virus added
[3] = system: Bovine viral diarrhea (BVD) virus; assay: Anti-BVDV CPE inhibition assay in MDBK cells; details: for EC50: Bovine viral diarrhea virus isolates and strains, MDBK, in Bos taurus, 96 h; for SI (selectivity index, ratio of CC50 and EC50): CC50/EC50, MDBK cells, BVD virus
BVDV type 1 strain SD1 = details: 2 mg/kg i.v. 3x daily

Row | Compound | CC50 at 4 days [2] [µM] | EC50 [3] [µM] | SI (selectivity index, ratio of CC50 and EC50) [3] | further results
1 | Cc1ccc2nc(Cn3ccc4nc(-c5cnn(C)c5C)nc-4c3)sc2c1 [CPD-1, 2-((2-(1,5-dimethyl-1H-pyrazol-4-yl)-5H-imidazo[4,5-c]pyridin-5-yl)methyl)-6-methylbenzo[d]thiazole] | 231 | 0.013 ± 0.005 | 17769 | EC50 [1]: 0.3 ± 0.1 µM
2 | Cc1nc(Cn2ccc3nc(-c4ccccc4F)nc-3c2)sc1-c1ccccc1 [CPD-29, 2-((2-(2-fluorophenyl)-5H-imidazo[4,5-c]pyridin-5-yl)methyl)-4-methyl-5-phenylthiazole] | > 50 | 0.257 ± 0.107 | >195 | EC50 [1]: 2.8 ± 1.4 µM
3 | Fc1ccc(OC(F)(F)F)cc1-c1nc2ccn(Cn3nnc4ccccc43)cc-2n1 [CPD-40, 1-((2-(2-fluoro-5-(trifluoromethoxy)phenyl)-5H-imidazo[4,5-c]pyridin-5-yl)methyl)-1H-benzo[d][1,2,3]triazole] | 48 | 0.089 ± 0.018 | 539 | EC50 [1]: 5.9 µM
4 | Fc1ccccc1-c1cc2ccn(Cn3nnc4ccccc43)cc-2n1 [Compound I, 1-{[2-(2-fluorophenyl)-6H-pyrrolo[2,3-c]pyridin-6-yl]methyl}-1H-benzotriazole] | 22 | 0.009 ± 0.008 | 2444 | Antibody titre of seroconverted calf on Day 14 (BVDV type 1 strain SD1; 7 days, Day 14): 16; Calves seroconverted (anti-BVDV neutralizing antibodies) by Day 14 (BVDV type 1 strain SD1; 7 days, Day 14 post challenge): 1 out of 5; Average anti-BVDV neutralising antibody titre on Day 28 (BVDV type 1 strain SD1; 7 days, Day 28): 64; Haematology and clinical chemistry versus control group (BVDV type 1 strain SD1; calves, 7 days, Day 0, 7, 14, 21, 28): did not reveal any difference between both treatment groups; Adverse drug reactions on daily clinical monitoring (BVDV type 1 strain SD1; calves, 7 days, Day 0 to Day 28): No signs of adverse drug reactions were observed; BVDV virus isolation from buffy coat samples during treatment (BVDV type 1 strain SD1; calves, Day 0 to Day 6): could not be detected
5 | Cc1ccc2nc(Cn3ccc4cc(-c5cc(OCCO)ccc5F)nc-4c3)sc2c1 [Compound XII, 2-(4-fluoro-3-(6-((6-methyl-1,3-benzothiazol-2-yl)methyl)-6H-pyrrolo[2,3-c]pyridin-2-yl)phenoxy)ethan-1-ol] | 5 | 0.02 ± 0.007 | 250 | –
6 | Cc1ccc2nc(Cn3ccc4cc(-c5ccccc5CO)nc-4c3)sc2c1 [Compound XIII, (2-{6-[(6-methyl-1,3-benzothiazol-2-yl)methyl]-6H-pyrrolo[2,3-c]pyridin-2-yl}phenyl)methanol] | 18 | 0.009 ± 0.008 | 2000 | –
7 | COc1ncccc1-c1cc2ccn(Cc3nc4ccc(C)cc4s3)cc-2n1 [Compound XIV, 2-{[2-(2-methoxypyridin-3-yl)-6H-pyrrolo[2,3-c]pyridin-6-yl]methyl}-6-methyl-1,3-benzothiazole] | 4 | 0.017 | 235 | –
8 | OCCOc1ccc(F)c(-c2cc3cn(Cn4nnc5ccccc54)ccc-3n2)c1 [Compound XIX, 2-(3-{5-[(1H-benzotriazol-1-yl)methyl]-5H-pyrrolo[3,2-c]pyridin-2-yl}-4-fluorophenoxy)ethan-1-ol] | > 50 | 0.097 ± 0.015 | >515 | –
9 | Cc1ccc2nc(Cn3ccc4cc(-c5cnn(C)c5C)nc-4c3)sc2c1 [Compound XV, 2-{[2-(1,5-dimethyl-1H-pyrazol-4-yl)-6H-pyrrolo[2,3-c]pyridin-6-yl]methyl}-6-methyl-1,3-benzothiazole] | 17 | 0.016 ± 0.001 | 1063 | –
10 | Cc1ccc2nc(Cn3ccc4cc(-c5ccccc5CO)nc-4c3)[nH]c2c1 [Compound XVI, (2-(6-((6-methyl-1H-benzoimidazol-2-yl)methyl)-6H-pyrrolo[2,3-c]pyridin-2-yl)phenyl)methanol] | 22 | 0.294 ± 0.07 | 75 | –
11 | Fc1ccccc1-c1cc2cn(Cn3nnc4ccccc43)ccc-2n1 [Compound XVII, 1-{[2-(2-fluorophenyl)-5H-pyrrolo[3,2-c]pyridin-5-yl]methyl}-1H-benzotriazole] | 19 | 0.012 ± 0.006 | 1583 | –
12 | Fc1ccc(OC(F)(F)F)cc1-c1cc2cn(Cn3nnc4ccccc43)ccc-2n1 [Compound XVIII, 1-({2-[2-fluoro-5-(trifluoromethoxy)phenyl]-5H-pyrrolo[3,2-c]pyridin-5-yl}methyl)-1H-benzotriazole] | 12 | 0.076 ± 0.019 | 158 | –
13 | COc1ccccc1-c1cc2cn(Cn3nnc4ccccc43)ccc-2n1 [Compound XX, 1-{[2-(2-methoxyphenyl)-5H-pyrrolo[3,2-c]pyridin-5-yl]methyl}-1H-benzotriazole] | 39 | 0.082 | 476 | –
14 | OCc1ccccc1-c1cc2cn(Cn3nnc4ccccc43)ccc-2n1 [Compound XXI, (2-(5-((1H-Benzotriazol-1-yl)methyl)-5H-pyrrolo[3,2-c]pyridin-2-yl)phenyl)methanol] | > 50 | 0.387 ± 0.022 | >129 | –
15 | N#Cc1ccc(-c2cc3cn(Cn4nnc5ccccc54)ccc-3n2)cc1 [Compound XXII, 4-{5-[(1H-benzotriazol-1-yl)methyl]-5H-pyrrolo[3,2-c]pyridin-2-yl}benzonitrile] | 21 | 0.007 ± 0.005 | 3000 | –
16 | COc1ncccc1-c1cc2cn(Cn3nnc4ccccc43)ccc-2n1 [Compound XXIII, 1-((2-(2-methoxypyridin-3-yl)-5H-pyrrolo[3,2-c]pyridin-5-yl)methyl)-1H-benzotriazole] | 32 | 0.082 | 390 | –
17 | Cc1c(-c2cc3cn(Cn4nnc5ccccc54)ccc-3n2)cnn1C [Compound XXIV, 1-((2-(1,5-dimethyl-1H-pyrazol-4-yl)-5H-pyrrolo[3,2-c]pyridin-5-yl)methyl)-1H-benzotriazole] | 12 | 0.076 ± 0.019 | 158 | –
18 | Cc1ccc2nc(Cn3ccc4nc(-c5cc(OCCO)ccc5F)cc-4c3)sc2c1 [Compound XXIX, 2-(4-fluoro-3-(5-((6-methyl-1,3-benzothiazol-2-yl)methyl)-5H-pyrrolo[3,2-c]pyridin-2-yl)phenoxy)ethan-1-ol] | 16 | 0.037 ± 0.03 | 432 | –
19 | Cc1ccc2oc(Cn3ccc4nc(-c5ccccc5F)cc-4c3)nc2c1 [Compound XXV, 2-{[2-(2-fluorophenyl)-5H-pyrrolo[3,2-c]pyridin-5-yl]methyl}-5-methyl-1,3-benzoxazole] | 7 | 0.004 ± 0.002 | 1750 | –
20 | Cc1ccc2oc(Cn3ccc4nc(-c5ccccc5CO)cc-4c3)nc2c1 [Compound XXVI, (2-(5-((5-methyl-1,3-benzoxazol-2-yl)methyl)-5H-pyrrolo[3,2-c]pyridin-2-yl)phenyl)methanol] | 22 | 0.311 ± 0.078 | 71 | –
21 | COc1ncccc1-c1cc2cn(Cc3nc4cc(C)ccc4o3)ccc-2n1 [Compound XXVII, 2-((2-(2-methoxypyridin-3-yl)-5H-pyrrolo[3,2-c]pyridin-5-yl)methyl)-5-methyl-1,3-benzoxazole] | 21 | 0.016 ± 0.001 | 1313 | –
22 | Cc1ccc2nc(Cn3ccc4nc(-c5ccccc5F)cc-4c3)sc2c1 [Compound XXVIII, 2-{[2-(2-fluorophenyl)-5H-pyrrolo[3,2-c]pyridin-5-yl]methyl}-6-methyl-1,3-benzothiazole] | 3 | 0.016 | 188 | –
23 | Cc1ccc2nc(Cn3ccc4nc(-c5ccccc5CO)cc-4c3)sc2c1 [Compound XXX, (2-{5-[(6-methyl-1,3-benzothiazol-2-yl)methyl]-5H-pyrrolo[3,2-c]pyridin-2-yl}phenyl)methanol] | 20 | 0.019 ± 0.007 | 1053 | –
24 | COc1ncccc1-c1cc2cn(Cc3nc4ccc(C)cc4s3)ccc-2n1 [Compound XXXI, 2-{[2-(2-methoxypyridin-3-yl)-5H-pyrrolo[3,2-c]pyridin-5-yl]methyl}-6-methyl-1,3-benzothiazole] | 10 | 0.006 ± 0.006 | 1667 | –
25 | Cc1ccc2nc(Cn3ccc4nc(-c5cnn(C)c5C)cc-4c3)sc2c1 [Compound XXXII, 2-{[2-(1,5-dimethyl-1H-pyrazol-4-yl)-5H-pyrrolo[3,2-c]pyridin-5-yl]methyl}-6-methyl-1,3-benzothiazole] | 21 | 0.012 ± 0.008 | 1750 | –
26 | COc1ncccc1-c1cc2cn(Cc3nc4ccc(C)cc4[nH]3)ccc-2n1 [Compound XXXIV, 2-((2-(2-methoxypyridin-3-yl)-5H-pyrrolo[3,2-c]pyridin-5-yl)methyl)-6-methyl-1H-benzoimidazole] | > 50 | 0.395 ± 0.02 | >127 | –
27 | Cc1ccc2nc(Cn3ccc4nc(-c5ccccc5CO)cc-4c3)[nH]c2c1 [XXXIII, [2-[5-[(6-methyl-1H-benzimidazol-2-yl)methyl]pyrrolo[3,2-c]pyridin-2-yl]phenyl]methanol] | > 50 | 1.9 ± 0.102 | >26 | –
